According to patent US5607544A, “Process and agent for the oxidative bleaching of wood pulp and for deinking waste paper” (BK Ladenburg GmbH fur Chemische Erzeugnisse, priority 1994, dated 1997):

Experiments:
[1] = biological target: T1, enzyme catalase (No. C10 Sigma catalogue) (Bos taurus, UniProt P00432); assay: Action on the pure enzyme catalase, absorption decrease at 240 nm; format: biochemical
T1 construct: purchased Sigma C10
T1 sequence (P00432 2-527 limits assumed): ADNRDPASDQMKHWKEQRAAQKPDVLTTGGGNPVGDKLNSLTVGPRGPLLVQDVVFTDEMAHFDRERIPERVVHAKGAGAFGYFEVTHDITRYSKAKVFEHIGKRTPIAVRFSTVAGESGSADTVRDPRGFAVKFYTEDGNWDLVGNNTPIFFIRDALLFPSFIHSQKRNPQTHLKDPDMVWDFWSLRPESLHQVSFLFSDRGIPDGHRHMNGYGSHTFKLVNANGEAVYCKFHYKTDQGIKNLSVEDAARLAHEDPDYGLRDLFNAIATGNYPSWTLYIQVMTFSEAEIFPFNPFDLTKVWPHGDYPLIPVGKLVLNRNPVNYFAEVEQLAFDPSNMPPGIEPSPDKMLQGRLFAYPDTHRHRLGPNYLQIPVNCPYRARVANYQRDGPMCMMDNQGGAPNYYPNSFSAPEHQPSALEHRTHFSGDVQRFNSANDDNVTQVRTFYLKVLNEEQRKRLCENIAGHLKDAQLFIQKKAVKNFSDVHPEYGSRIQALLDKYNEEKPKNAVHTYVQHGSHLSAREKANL
Procedure: phosphate buffer 0.05M, pH 7.0 (K2 HPO4 : 8.7 g/l; KH2 PO4 : 6.8 g/l)
enzyme catalase (No. C10 Sigma catalogue)
substrate hydrogen peroxide (30%).
Dissolve catalase in 0.05M phosphate buffer.
Concentration: 50 sigma units per ml of buffer.
Dissolve 0.1 ml 30% hydrogen peroxide in 50 ml of 0.05M phosphate buffer (control) or in 50 ml phosphate buffer which contains the stabiliser (substrate). Measure the absorption at 240 nm. The result must lie between 0.550 and 0.520. Possibly dilute the solution or add more hydrogen peroxide thereto.
2.9 ml of solution B are placed in a quartz cuvette and subsequently mixed with 0.1 ml of solution A. The absorption at 240 nm should, at the beginning of the measurement, amount to approximately 0.450. The time needed for the decrease of the absorption at 240 nm from 0.450 to 0.400 is determined. This time corresponds to the conversion of 3.45 μmol hydrogen peroxide in 3 ml of sample volume.
(sigma units total)=3.45: time (minutes calculating back to active sigma units 1 sigma unit reacts 1.0 μmol hydrogen peroxide per minute (at pH 7.0; 25° C.).

[2] = tested on: catalase; assay: Catalase test: pressure increase after hydrogen peroxide addition to deinking process water of a paper factory; format: biochemical; conditions: 0.1% hydrogen peroxide
Procedure: (§1) The catalase test depends upon the measurement of the increase of the pressure in an airtight-closed vessel after the introduction of 0.1% hydrogen peroxide. With increasing concentration of catalase in a sample, the pressure to be measured increases correspondingly. The pressure is given as an electric signal in relative units (mV). The pressure increase is measured after 10 minutes.

[3] = Residual peroxide content by iodometric titration in deinking process water samples
Source text: The measurement of the residual peroxide content took place by iodometric titration.
The initial peroxide content corresponds to 100% (=0.1% hydrogen peroxide (100%)).

[4] = tested on: catalase; assay: Pressure increase after hydrogen peroxide addition to process water 3 (rate of decomposition of peroxide); format: biochemical; conditions: 400 ppm referred to process water volume, 0.1% hydrogen peroxide, after 10 minutes, ambient temperature, 0 sample 9.8
Procedure: as §1
As sample, there was used process water 3 and worked up analogously to Example 1. After the addition of 0.1% hydrogen peroxide (referred to 100% hydrogen peroxide), there was measured the pressure increase in relative pressure units (in mV) after 10 minutes. The measurement took place at ambient temperature.

[5] = Laboratory deinking experiment with process water 1 (whiteness, flotate, ash, residual peroxide); conditions: 0 sample 15.7%
Procedure: Into 1 liter of water of 30° dH (tap water) are introduced:
(§2) Into the pulper (2800 r.p.m.) are introduced 50 g of atro waste paper and the chemical solution is subsequently introduced. The pulping time is 10 minutes. After ending of the brushing out time, the paper slurry is shaken out into a glass beaker, stirred up with a commercially available ultrasonic disperser and the pH value determined.
The pH value is 9.5±0.2. 100 ml are taken from the brushed out suspension and a sheet formed (degree of whiteness and brightness before the flotation).
(§3) The remaining fibre material is placed for 110 minutes in a waterbath with a temperature of 50° C. After the residence time, it is dispersed with a disperser for 1 minute at 10,000 r.p.m. The paper slurry is emptied into a flotation cell which is filled with water with a temperature of 50° C. There is thereby adjusted a material density of 0.8% (pH value 8.5). Air is introduced into the cell at a rate of 60 liters/hour and the speed of stirring is 1000 r.p.m. The flotation time is 10 minutes, foam being skimmed off manually. After the flotation is ended, acidification is carried out with sulphuric acid to pH 5 and sheets are formed.
The brightness and degree of whiteness are measured on the front and rear side and the average value determined.
R 457: reflection factor at 457 nm wavelength
Y/C: standard type of light C/1931
Process water 1 was used. The statements of percentage refer to the commercial product and the residual peroxide was determined by a titration method.

[6] = Flotation experiment in tap water without waterglass (stability of hydrogen peroxide); conditions: no waterglass; for residual peroxide: 0 sample 15%
Procedure: as §2, §3
In the case of this experiment, working was analogous to Example 3 but tap water was used instead of process water. […] At the same time, in the case of this experiment, the addition of waterglass as stabiliser is omitted.

[7] = 400 ppm active substance, pressure increase after 10 minutes, comparison sample without additive 9.8

Structure (SMILES): OCl [Sodium hypochlorite]
- action on the pure enzyme catalase (in words) ([1]; solution B (hydrogen peroxide in phosphate buffer)): reacts in solution B with hydrogen peroxide with decomposition before catalase can be added

Structure (SMILES): N#CSCSC#N [MBT, methylene bisthiocyanate]
- pressure in relative units [2, 7]: 6.2 mV

Structure (SMILES): O=CCCCC=O [glutaraldehyde]
- inhibition at 0.5 ppm ([1]; 0.5 ppm, pH 7.0): 6%
- inhibition at 2.5 ppm ([1]; 2.5 ppm, pH 7.0): 9%
- inhibition at 5 ppm ([1]; 5 ppm, pH 7.0): 11%

Structure (SMILES): N#CC(Br)(Br)C(N)=O [DBNPA, 2,2-dibromo-3-nitrilopropionamide]
- pressure in relative units [2, 7]: > 9.0 mV

Structure (SMILES): CNC(=S)S [MDTCMA, monomethylammonium monomethyl dithiocarbamate]
- pressure in relative units [2, 7]: > 9.0 mV

Structure (SMILES): CNC(=S)S [metamsodium, sodium monomethyldithiocarbamate]
- pressure in relative units [2, 7]: 5.0 mV

Structure (SMILES): O=C(C(Cl)=NO)c1ccc(O)cc1 [paraclox, 2-oxo-2-(4-hydroxyphenyl)-acethydroximic acid chloride]
- residual peroxide content ([3]; Process water 1 (clear filtrate), 10 ppm, 0 min.): 100%
- residual peroxide content ([3]; Process water 1 (clear filtrate), 10 ppm, 30 min.): 55.4%
- residual peroxide content ([3]; Process water 1 (clear filtrate), 10 ppm, 60 min.): 43.1%
- residual peroxide content ([3]; Process water 1 (clear filtrate), 10 ppm, 90 min.): 33.8%
- residual peroxide content ([3]; Process water 1 (clear filtrate), 10 ppm, 120 min.): 26.9%
- residual peroxide content ([3]; Process water 1 (clear filtrate), 100 ppm, 0 min.): 100%
- residual peroxide content ([3]; Process water 1 (clear filtrate), 100 ppm, 30 min.): 95.4%
- residual peroxide content ([3]; Process water 1 (clear filtrate), 100 ppm, 60 min.): 87.7%
- residual peroxide content ([3]; Process water 1 (clear filtrate), 100 ppm, 90 min.): 87.7%
- residual peroxide content ([3]; Process water 1 (clear filtrate), 100 ppm, 120 min.): 86.1%
- residual peroxide content ([3]; Process water 2 (drum 1), 2 ppm, 0 min.): 100%
- residual peroxide content ([3]; Process water 2 (drum 1), 2 ppm, 30 min.): 3.6%
- residual peroxide content ([3]; Process water 2 (drum 1), 2 ppm, 60 min.): 0%
- residual peroxide content ([3]; Process water 2 (drum 1), 2 ppm, 90 min.): 0%
- residual peroxide content ([3]; Process water 2 (drum 1), 2 ppm, 120 min.): 0%
- residual peroxide content ([3]; Process water 2 (drum 1), 20 ppm, 0 min.): 100%
- residual peroxide content ([3]; Process water 2 (drum 1), 20 ppm, 30 min.): 62.1%
- residual peroxide content ([3]; Process water 2 (drum 1), 20 ppm, 60 min.): 56.8%
- residual peroxide content ([3]; Process water 2 (drum 1), 20 ppm, 90 min.): 50.8%
- residual peroxide content ([3]; Process water 2 (drum 1), 20 ppm, 120 min.): 47%
- pressure increase in relative pressure units [4]: 0.2 mV
- inhibition at 0.2 ppm ([1]; 0.2 ppm, pH 7.0): 0%
- inhibition at 1 ppm ([1]; 1 ppm, pH 7.0): 16%
- inhibition at 2 ppm ([1]; 2 ppm, pH 7.0): 63%
- residual peroxide ([5]; paraclox 0.02%): 21.4%
- residual peroxide ([5]; paraclox 0.04%): 28.5%
- residual peroxide ([5]; paraclox 0.08%): 49.7%
- stabilising action on the peroxide (in words) [6]: very good stabilising action on the peroxide
- residual peroxide ([6]; paraclox 0.02%): 34.0%
- residual peroxide ([6]; paraclox 0.04%): 41.0%
- residual peroxide ([6]; paraclox 0.08%): 52.4%
- pressure in relative units ([2]; 10 ppm active substance, after 10 minutes): 4.2 mV
- pressure in relative units ([2]; 100 ppm active substance, after 10 minutes): 0.5 mV
- pressure in relative units [2, 7]: 0.2 mV

Structure (SMILES): OC[P+](CO)(CO)CO [THPS, tetrakishydroxymethylphosphonium sulphate]
- pressure in relative units [2, 7]: > 9.0 mV
